# Measured values as given in patent publication US9198965B2 (priority 2008, dated 2015).
# Like-named read-outs stand apart in the source and are kept apart here.
# How the values were obtained:
# [1] = test system: PR/8 virus; assay: Sedimentation density profiles (density gradient ultracentrifugation) of peptide-treated virus; design: species or system A/PuertoRico/8/34 (PR/8, H1N1); conditions: EB peptide-treated samples (10 μM, 30 μM)
# [2] = test system: RAW 264.7 macrophages; assay: Association of FITC-labeled virus with macrophages by flow cytometry; type: cell-based; conditions: virus treated with 10 μM EB; compared to 0 μM
# [3] = test system: VN/1203; assay: Virus specific IgG ELISA after vaccination with inactivated VN/1203 (Example 3); type: in vivo, Balb/C mice; conditions: 28 days post-vaccination; EB at all concentrations (10 μM, 50 μM, 0.5 mM, 1 mM); i.m., boost day 15
# [4] = test system: VN/1203; type: in vivo, Balb/C mice
# [5] = test system: VN/1203; type: in vivo, Balb/C mice; conditions: suboptimal dose vaccine
# [6] = test system: VN/1203; assay: Influenza-specific total IgG, IgG1, IgG2 ELISA after suboptimal dose VN/1203 vaccine (Example 5); design: species or system Balb/C mice; conditions: mouse, in vivo
# [7] = test system: VN/1203 virus; assay: Microneutralization assay of sera, suboptimal dose VN/1203 vaccine (Example 5); design: species or system Balb/C mice; conditions: mouse, in vivo
# [8] = test system: PR/8 virus; type: in vivo, Balb/C mice; conditions: suboptimal dose PR/8 vaccine
# [9] = test system: PR/8 virus; assay: Influenza-specific neutralizing antibodies in sera, suboptimal dose PR/8 vaccine (Example 6); type: in vivo, Balb/C mice; conditions: day 15 post-vaccination; pooled serum; values <40 negative
# [10] = test system: VN/1203 virus; type: in vivo, Balb/C mice; conditions: day 15 and 28 post-vaccination; inactivated VN/1203; EB 200 μM
# [11] = test system: PR/8 virus; assay: Splenocyte IFN-γ ELISpot assay, PR/8 vaccine (Example 8); type: in vivo, Balb/C mice; conditions: day 15 post-vaccination; inactivated PR/8; EB 50 μM or 200 μM
# [12] = test system: influenza viruses; conditions: in vitro; cited from earlier work
# [13] = test system: H5N1 influenza virus; conditions: mouse, in vivo; cited from earlier work
# [14] = test system: influenza virus; conditions: cited from earlier work
sequence,measurement,setting,value
RRKKAAVALLPAVLLALLAP [EB],HA activity as compared to virus alone,[1],considerably lower
same,shift in macrophage association peak of FITC-PR/8,[2],minimal shift
same,virus specific IgG titers compared to inactivated virus alone or alum adjuvanated vaccine,[3],increased
same,weight change compared to day 0 of challenge,"[4]; […], EB 10 μM, 50 μM, 0.5 mM or 1 mM, alum 0.5 mg/ml",weight increase
same,infectious virus in lungs (TCID50 on MDCK cells),"[4]; […], VN/1203 pretreated with 50 μM or greater amounts of EB",no detectable infectious virus
same,infectious virus in lungs (TCID50 on MDCK cells),"[4]; day 10, any of the groups vaccinated with inactivated VN/1203 and EB",no detectable infectious virus
same,weight loss,"[5]; 200 μM EB, no boost",little to no weight loss
same,weight loss,"[5]; 200 μM EB, with boost",little to no weight loss
same,score for clinical signs of infection (0-3),"[5]; 200 μM EB, without boost",1
same,survival rate,[5]; EB 50 μM,> 60%
same,score for clinical signs of infection (0-3),"[5]; peptide 200 μM, with boost",0
same,"total IgG, IgG1, and IgG2 levels versus suboptimal dose of VN/1203 alone",[6],the same
same,virus neutralizing antibody titers (microneutralization),[7],negative
same,survival rate,[8]; EB 50 μM,100%
same,survival rate,[8]; EB 200 μM,100%
same,influenza-specific neutralizing antibody titers,[9],negative
same,IFN-γ levels (IFN-γ secreting splenocytes),[10],increases
same,IFN-γ levels (IFN-γ secreting splenocytes),[11],increases
same,concentrations at which EB inhibits virus replication,[12],≥ 10 µM
same,clinical signs of H5N1 influenza virus infection,[13],prevented clinical signs
same,survival,[13],increased survival
same,influenza virus attachment to cells,[14],inhibited
"RRKKLPAVLLALLAP [SEQ ID NO: 4 peptide, derivative of EB retaining RRKK tag with 5 amino acid residues removed from the N-terminus]",weight loss,[5]; peptide 200 μM,around 20%
same,score for clinical signs of infection (0-3),"[5]; peptide 200 μM, with boost",2
